Measured values taken from US6693116B2, “Adenosine receptor ligands” (Hoffmann-La Roche Inc., priority 2001, dated 2004).

Molecular target: T1, human adenosine A2A receptor (Homo sapiens, UniProt P29274)
T1 construct: expressed in transfected cells; host or cells: CHO cells, Semliki Forest virus expression system; membrane preparation
Assay: [3H]-SCH-58261 binding assay, human adenosine A2A receptor
Details: membranes of CHO cells recombinantly expressing the human A2A receptor, Ki from IC50 by Cheng-Prussoff equation, read-out: HA2A KI
Procedure: Human Adenosine A2A Receptor
The human adenosine A2A receptor was recombinantly expressed in Chinese hamster ovary (CHO) cells using the semliki forest virus expression system. Cells were harvested, washed twice by centrifugation, homogenized and again washed by centrifugation. The final washed membrane pellet was suspended in a Tris (50 mM) buffer containing 120 mM NaCl, 5 mM KCl, 2 mM CaCl2 and 10 mM MgCl2 (pH 7.4) (buffer A). The [^3H]-SCH-58261 (Dionisotti et al., 1997, Br. J. Pharmacol. 121, 353) binding assay was carried out in 96-well plates in the presence of 2.5 μg of membrane protein, 0.5 mg of Ysi-poly-l-lysine SPA beads and 0.1 U adenosine deaminase in a final volume of 200 μl of buffer A. Non-specific binding was defined using xanthine amine congener (XAC; 2 μM). Compounds were tested at 10 concentrations from 10 μM to 0.3 nM. All assays were conducted in duplicate and repeated at least twice. Assay plates were incubated for 1 hour at room temperature before centrifugation and then bound ligand was determined using a Packard Topcount scintillation counter. IC50 values were calculated using a non-linear curve fitting program and Ki values calculated using the Cheng-Prussoff equation.
In accordance with the invention, the compounds of formula I have a high affinity toward the A2A receptor. The table below (after Example 10) describes specific values of prepared compounds.

T1 sequence (P29274 whole entry): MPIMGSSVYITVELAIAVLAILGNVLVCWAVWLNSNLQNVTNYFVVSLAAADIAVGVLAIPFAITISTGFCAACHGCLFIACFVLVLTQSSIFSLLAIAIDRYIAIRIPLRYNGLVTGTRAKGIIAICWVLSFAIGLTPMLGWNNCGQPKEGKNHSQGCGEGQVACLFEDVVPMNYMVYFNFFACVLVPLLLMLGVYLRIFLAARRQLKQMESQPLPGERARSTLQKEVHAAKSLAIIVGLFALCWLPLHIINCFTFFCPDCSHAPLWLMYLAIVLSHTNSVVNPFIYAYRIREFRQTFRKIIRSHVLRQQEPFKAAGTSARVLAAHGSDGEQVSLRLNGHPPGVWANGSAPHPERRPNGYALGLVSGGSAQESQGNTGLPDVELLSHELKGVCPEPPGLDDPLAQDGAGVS

Row | Ki [nM] | SMILES
1 | 480 | COc1cccc(-c2ccc(OC)n3nc(NC(=O)c4ccc(Br)cc4)nc23)c1 [Example 13, 4-Bromo-N-[5-methoxy-8-(3-methoxy-phenyl)-[1,2,4]triazolo[1,5-a]pyridin-2-yl]-benzamide]
2 | 884 | COc1ccc(-c2ccccc2)c2nc(NC(=O)c3ccc(C(F)(F)F)cc3)nn12 [Example 11, N-(5-Methoxy-8-phenyl-[1,2,4]triazolo[1,5-a]pyridin-2-yl)-4-trifluoromethyl-benzamide]
3 | 748 | COc1cccc(-c2ccc(OC)n3nc(NC(=O)c4ccc(F)cc4)nc23)c1 [Example 19, 4-Fluoro-N-[5-methoxy-8-(3-methoxy-phenyl)-[1,2,4]triazolo[1,5-a]pyridin-2-yl]-benzamide]
4 | 776 | COc1ccc(-c2ccc(F)cc2)c2nc(NC(=O)c3ccc(Br)cc3)nn12 [Example 12, 4-Bromo-N-[8-(4-fluoro-phenyl)-5-methoxy-[1,2,4]triazolo[1,5-a]pyridin-2-yl]-benzamide]
5 | 984 | COc1ccc(-c2ccccc2)c2nc(NC(=O)c3cccc(C)c3)nn12 [Example 17, N-(5-Methoxy-8-phenyl-[1,2,4]triazolo[1,5-a]pyridin-2-yl)-3-methyl-benzamide]

The remaining lines, values behind:

Row | SMILES | Ki [nM]
6 | COc1cccc(-c2ccc(OC)n3nc(NC(=O)c4ccc(Br)o4)nc23)c1 [Example 16, 5-Bromo-furan-2-carboxylic acid [5-methoxy-8-(3-methoxy-phenyl)-[1,2,4]triazolo[1,5-a]pyridin-2-yl]-amide] | 560
7 | COc1ccc(-c2cccc(F)c2)c2nc(NC(=O)c3ccc(Br)o3)nn12 [Example 15, 5-Bromo-furan-2-carboxylic acid [8-(3-fluoro-phenyl)-5-methoxy-[1,2,4]triazolo[1,5-a]pyridin-2-yl]-amide] | 572
8 | COc1ccc(-c2ccc(F)cc2)c2nc(NC(=O)c3ccc(F)cc3)nn12 [Example 18, 4-Fluoro-N-[8-(4-fluoro-phenyl)-5-methoxy-[1,2,4]triazolo[1,5-a]pyridin-2-yl]-benzamide] | 664
9 | COc1ccc(-c2ccc(F)cc2)c2nc(NC(=O)c3ccccc3F)nn12 [Example 20, 2-Fluoro-N-[8-(4-fluoro-phenyl)-5-methoxy-[1,2,4]triazolo[1,5-a]pyridin-2-yl]-benzamide] | 784
10 | COc1cccc(-c2ccc(OC)n3nc(NC(=O)c4cccs4)nc23)c1 [Example 21, Thiophene-2-carboxylic acid[5-methoxy-8-(3-methoxy-phenyl)-[1,2,4]thiazolo[1,5-a]pyridin-2-yl]-amide] | 516
11 | COc1ccc(Br)c(C(=O)Nc2nc3c(-c4cccc(F)c4)ccc(OC)n3n2)c1 [Example 14, 2-Bromo-N-[8-(3-fluoro-phenyl)-5-methoxy-[1,2,4]triazolo[1,5-a]pyridin-2-yl]-5-methoxy-benzamide] | 908
